Read-outs that look alike come from different tables or passages of the source.
How the values were obtained:
[1] = Loss of lean mass after a larger dose of LPS (whole-body NMR); assay type: in vivo, C57BL/6 male mice; details: additional 18 h LPS treatment
Source text: A) Correlation of correlation (COC) plots where each point represents the Pearson correlation coefficient, r, between a distinct gene expression or GR-peptide interaction assay with assays indicated on the x and y axes. B) The effects of all tested compounds on IL-1β-induced secretion of IL-6 (y axes) and GC-regulated phenotypes indicated on the x axes. C) The effects of all tested compounds on IL-1β-induced secretion of IL-6 (y axis) and bone mineralization (x axis). D) IL-1β-induced IL-6 production by A549 cells treated with 10 μM of the indicated compounds was compared by AlphaLISA. E-H) Myoblasts were assayed as described in FIG. 8. I) Representative myoblasts imaged during the mitochondrial potential assay. J) Plasma TNFα levels of C57BL/6 male mice treated pretreated with the indicated ligands. K) Changes in lean mass of mice in panel J were determined by whole-body NMR after an additional 18 h LPS treatment. Data shown are mean+SEM.

[2] = Body weight change after an overnight fast; assay type: in vivo, C57BL/6 male mice; details: 10 mg/kg Dex or SR16024, 50 mg/kg SR11466, single dose
Source text: (§1) A) The effects of all tested compounds on IL-1β-induced IL-6 production (x-axes) versus GR interaction with the indicated peptides. B-C) The effects of all tested compounds on the indicated GC-regulated phenotypes (x-axes) versus GR interaction with the CHD9_1023 and CENPR_1 peptides (y-axes). D-F) COC plots. Each point represents the Pearson correlation coefficient, r, between a distinct gene expression or GR-peptide interaction assay with assays indicated on the x and y axes. G) The effects of all tested compounds on IL-1β-induced IL-6 production (y-axes) versus insulin-induced protein synthesis. […] IL-β-induced IL-6 production by A549 cells treated with the indicated compounds was compared by AlphaLISA. […] Mice in panel K were subjected to a lactate-tolerance test (LTT).
We were also interested in whether the compounds would show dissociation between Glut4 translocation in skeletal muscle and gluconeogenesis in the liver, but enhanced glucose production is typically studied after weeks or months of GC treatment. However, we reasoned that an overnight fast should enable detection of effects after a single dose. […] Thus, profiling effects of GCs in the physiological context of nutrient deprivation allowed the discovery of two new types of glucocorticoids with improved profiles in skeletal muscle.

[3] = target: T1, glucocorticoid receptor (GR) (Homo sapiens, UniProt P04150); experiment: GR-driven (MMTV) luciferase reporter assay, agonist and antagonist mode; assay type: cell-based
T1 construct: expressed in transfected cells; host or cells: 293T
T1 sequence (P04150 1-777): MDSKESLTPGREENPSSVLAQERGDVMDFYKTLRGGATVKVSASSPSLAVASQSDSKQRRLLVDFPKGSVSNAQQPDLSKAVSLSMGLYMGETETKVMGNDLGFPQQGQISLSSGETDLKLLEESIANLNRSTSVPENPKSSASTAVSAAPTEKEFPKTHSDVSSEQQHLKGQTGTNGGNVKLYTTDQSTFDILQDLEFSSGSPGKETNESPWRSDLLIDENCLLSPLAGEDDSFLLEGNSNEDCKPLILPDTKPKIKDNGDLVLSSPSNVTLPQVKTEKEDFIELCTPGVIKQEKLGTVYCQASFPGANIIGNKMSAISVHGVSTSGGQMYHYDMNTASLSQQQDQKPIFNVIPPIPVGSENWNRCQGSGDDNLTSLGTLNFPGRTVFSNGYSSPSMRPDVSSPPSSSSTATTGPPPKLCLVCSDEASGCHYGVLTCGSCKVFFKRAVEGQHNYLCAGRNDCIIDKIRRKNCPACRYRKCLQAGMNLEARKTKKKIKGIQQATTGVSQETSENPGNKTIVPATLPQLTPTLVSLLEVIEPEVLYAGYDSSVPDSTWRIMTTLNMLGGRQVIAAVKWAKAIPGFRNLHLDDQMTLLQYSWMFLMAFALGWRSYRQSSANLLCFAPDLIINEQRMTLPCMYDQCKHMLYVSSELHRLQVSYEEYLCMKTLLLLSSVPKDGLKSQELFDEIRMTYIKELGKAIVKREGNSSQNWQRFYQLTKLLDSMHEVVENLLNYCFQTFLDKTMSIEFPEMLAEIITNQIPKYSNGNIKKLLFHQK
Description: For native gene expression, C2C12 myotubes were treated compounds for 24 h. For MMTV-Luc assay, steroid-deprived 293T cells were co-transfected with a GR expression plasmid and an MMTV-driven luciferase reporter plasmid. The next day, cells were treated with compounds for 24 hrs. Each point represents the average of triplicate biological measurements for a separate compound. B) AR Luc assay development. Steroid-deprived 293T cells were transfected with AR expression plasmid and an ARR3-tk-driven luciferase reporter. The next day cells were treated with increasing doses of the indicated compounds. Data shown are mean+SD of triplicate measurements. C) AR-Luc assay identified 5 GCs with some AR activity.
as §1
For inclusion in the statistical analyses, assays were required to show high reproducibility, with a Pearson correlation >0.8 between different experiments (FIG. 2, H; FIG. 9, A). […] We also analyzed the effects of the compounds on expression of Fkbp5, Pdk4, and Klf15 mRNAs in C2C12 myotubes, and MMTV-luciferase and androgen receptor (AR) driven-luciferase activity in 293T cells. Fkbp5 and Pdk4 are among the most highly expressed GR target genes, while Klf15 is a known GR target gene that inhibits protein synthesis and stimulates expression of genes that facilitate protein degradation (Shimizu et al., Cell Metabol. 13, 170-182, 2011). We also analyzed the effects of compounds on nuclear translocation of GR using a quantitative HTS approach (Htun et al., Proc. Natl. Acad. Sci. USA 93, 4845-4850, 1996). To visualize the variance of the compounds, we expressed the data as Z score for each assay, in units of standard deviation (FIG. 9, A). […] We used an AR-luciferase assay to test for androgenic activity (FIG. 9, B). From this we identified a handful compounds with AR activity >5% (FIG. 9, C).

modulator profile (agonist/antagonist) [3] | EC50 ([3]; read-out: EC50 in a luciferase reporter assay) [nM] | IC50 ([3]; read-out: IC50 for GR-driven luciferase activity) [nM] | EC50 ([3]; assay not given, read-out: EC50) [nM] | IC50 ([3]; read-out: IC50 for displacing 10 nM Dex, antagonist mode, 10 nM Dex) [nM] | IC50 ([3]; read-out: IC50 in the reporter assay) [nM] | Compound | loss of lean mass following a larger dose of LPS [1] | preserving body mass after overnight fast [2]
partial agonist | 0.1 | 0.24 | – | – | – | C=CCOC1CC2(C)C(CCC2(O)C#CC)C2CCc3cc(C(=O)Nc4cccnc4C)ccc3C12 (centres unmarked) [SR11466] | significantly better than Dex | significantly better than Dex
– | – | – | 240 | – | – | CC#CC1(O)CCC2C3CCc4cc(C(=O)Nc5cnccc5C)ccc4C3C(O)CC21C (centres unmarked) [SR15421] | – | –
full antagonist | – | – | – | 1 | 1.5 | CC#CC1(O)CCC2C3CCc4cc(C(=O)Nc5cccnc5C)ccc4C3C(OCc3ccccc3Cl)CC21C (centres unmarked) [SR16024] | protective | slight weight sparing effect

Source: US20230263808A1 (UNIVERSITY OF FLORIDA RESEARCH FOUNDATION, INCORPORATED, priority 2020, published 2023)
